Source: patent US7312031B1, “Alpha-complementation viral fusion assay” (The Salk Institute for Biological Studies, priority 2002, dated 2007)

Experiments:
[1] = tested on: fusion of 293T.CD4.Ω/CCR5 with 293T/ADA; experiment: alpha-complementation fusion assay, 293T.CD4.Ω/CCR5 with 293T/ADA; assay type: cell-based, human; conditions: FIG. 7-9, ADA Env (CCR5-specific)
Description: FIG. 7 depicts the fusion of 293T.CD4.Ω/CCR5 with 293T/ADA in the presence of TAK-779.
293T (ATCC cat #CRL-1573) or HeLa (ATCC cat #CCL-2) cells (2.5×10^6) were seeded in 10 cm plates 24 hours prior to transfection. The next morning, cells were transfected with 21 μg of DNA, 7 μg pSCTZ-alpha-N85, 7 μg pRSV-Rev (Hope et al., Proc. Nat'l. Acad. Sci. U.S.A. 87: 7787-91 (1990)) and 7 μg of envelope expression vector (pSV-ADA, pSV-JRFL (Deng et al., Nature 381: 661-666 (1996)), or pCAGGS-SF33 (York-Higgins et al., J. Virol. 64: 4016-4020 (1990)). […]
Remove the plates from the water bath, spin 4000 rpm (Eppendorf tabletop centrifuge) for 1 minute to firmly pellet cells, aspirate medium, and add 100 μl of Galacto-Star lysis buffer (Perkin-Elmer). […] After 60 minutes, read β-gal activity in plates in a Packard TopCount luminometer for 15 s/well. […]
Two days later, remove the transfected cells from plates by incubating with phosphate-buffered saline containing 5 mM EDTA. The cells are then counted on hemocytometer. […]
After four hours, read β-gal activity as in Example 1.

[2] = tested on: fusion of 293T.CD4.Ω with 293T/SF33; experiment: alpha-complementation fusion assay, 293T.CD4.Ω with 293T/SF33; assay type: cell-based, human; conditions: FIG. 5 and 6; SF33 Env (CXCR4-specific); 293T.CD4.Ω stable line
Description: Remove the plates from the water bath, spin 4000 rpm (Eppendorf tabletop centrifuge) for 1 minute to firmly pellet cells, aspirate medium, and add 100 μl of Galacto-Star lysis buffer (Perkin-Elmer). Mix well and incubate at room temperature for 5 minutes. Spin lysates 5 minutes at 4000 rpm and transfer 10 μl to a black 96-well plate (Costar). Add 100 μl of Galacto-Star substrate using a multi-channel pipettor. After 60 minutes, read β-gal activity in plates in a Packard TopCount luminometer for 15 s/well.
Transfect 293 cells with expression vector for HIV envelope protein, B-gal-α and HIV-1 Rev. Vectors used express CCR5-specific Envs (JFRL, ADA) or CXCR4-specific Envs (SF33 or JC2) driven by the cytomegalovirus promoter. Transfect the cells by lipofection or calcium phosphate standard methods.
Harvest 293-CD4.CCR5.omega cells with PBS/EDTA and count.
Prepare a microtiter plate by adding 2.5×10^5 293-CD4.CCR5.omega cells to each well with a multi-channel pipettor or robot in a volume of 50 μl of medium. Add inhibitors at different concentrations to each of the wells, in duplicate. […]

| SMILES | inhibition of fusion reaction [1] | inhibition of fusion reaction [2] |
| --- | --- | --- |
| Cc1ccc(-c2ccc3c(c2)C=C(C(=O)Nc2ccc(C[N+](C)(C)C4CCOCC4)cc2)CCC3)cc1.[Cl-] [TAK-779] | inhibits the fusion reaction in a concentration-dependent manner | – |
| c1cc(CN2CCCNCCNCCCNCC2)ccc1CN1CCCNCCNCCCNCC1 [AMD3100] | – | inhibits the fusion reaction in a concentration-dependent manner |
